Key:
[1] = Antiproliferative effects against human SHEP cells after 72 hrs by Alamar blue assay
MRC5 = assay: Antiproliferative effects against human MRC5 cells after 72 hrs by Alamar blue assay; conditions: MRC5, 72 h

SMILES | IC50 [1] [µM] | IC50 (MRC5) [µM]
CCCCCCCN1COc2cc3c(cc2C1)C=C(c1ccc(O)cc1)CO3 | 1.4 | 11.9
CN(C)Cc1cc2c(cc1O)OC=C(c1ccc(O)cc1)C2 | 5.8 | 
CCCCOCCCNCc1cc2c(cc1O)OC=C(c1ccc(O)cc1)C2 | 5.1 | 
C1=C(c2ccc3c(c2)CN(Cc2ccccc2)CO3)COc2cc3c(cc21)CN(Cc1ccccc1)CO3 | 3.7 | 
CN1COc2cc3c(cc2C1)C=C(c1ccc(O)cc1)CO3 | 6.6 | 
Oc1ccc(C2=Cc3cc(CN4CCCCC4)c(O)cc3OC2)cc1 | 19.9 | 
Oc1ccc(C2=Cc3cc4c(cc3OC2)OCN(Cc2ccccc2)C4)cc1 | 5.7 | 
CCCCCCCNCc1cc2c(cc1O)OC=C(c1ccc(O)cc1)C2 | 2.8 | 16
Oc1ccc(C2=Cc3cc4c(cc3OC2)OCN(CCc2ccccc2)C4)cc1 | 0.7 | 197
CCN(CC)Cc1cc2c(cc1O)OCC(c1ccc(O)cc1)=C2 | 35.7 | 
Oc1ccc(C2=COc3cc(O)c(CNCc4ccccc4)cc3C2)cc1 | 5.7 | 40.9
CC(C)N1COc2cc3c(cc2C1)C=C(c1ccc(O)cc1)CO3 | 12.2 | 
Oc1ccc(C2=Cc3cc(CN4CCOCC4)c(O)cc3OC2)cc1 | 86.8 | 
Oc1ccc(C2=Cc3cc(CN4CCOCC4)c(O)c(CN4CCOCC4)c3OC2)cc1CN1CCOCC1 | 69 | 
CCCCNCc1cc2c(cc1O)OC=C(c1ccc(O)cc1)C2 | 4 | 33.8
OCCNCc1cc2c(cc1O)OC=C(c1ccc(O)cc1)C2 | 27.5 | 
Oc1ccc(C2=COc3cc(O)c(CNCCc4ccccc4)cc3C2)cc1 | 1.8 | 36.7
CCCCN1COc2cc3c(cc2C1)C=C(c1ccc(O)cc1)CO3 | 3.9 | 33.8
Oc1ccc(C2=COc3cc(O)ccc3C2)cc1 [ISOPHENOXODIOL] | 8.4 | 109
Oc1ccc(C2=Cc3cc(CN4CCOCC4)c(O)cc3OC2)cc1CN1CCOCC1 | 171 | 
OCCN1COc2cc3c(cc2C1)C=C(c1ccc(O)cc1)CO3 | 24.6 | 
CCN(CC)Cc1cc(C2=Cc3cc(CN(CC)CC)c(O)cc3OC2)ccc1O | 3.4 | 21.2
Oc1ccc(C2=Cc3cc(CN4CCCCC4)c(O)cc3OC2)cc1CN1CCCCC1 | 4.2 | 
CC(C)NCc1cc2c(cc1O)OC=C(c1ccc(O)cc1)C2 | 15.1 | 
C=CCN1COc2cc3c(cc2C1)C=C(c1ccc(O)cc1)CO3 | 9.1 | 

— ChEMBL document CHEMBL3632474, “Synthesis, biological evaluation and structure-activity relationship studies of isoflavene based Mannich bases with potent anti-cancer activity” (Bioorg Med Chem Lett, 2015)
